Laboratory results from the NIST ThermoML archive (doi:10.1021/je050327l).
Numbers after ± are expanded uncertainties.

Conditions: Liquid, Ebulliometric method (Recirculating still)

## CCC(=O)O [propanoic acid]
373.1 K
  vapor or sublimation pressure: 23.38 ± 0.23 kPa
413.15 K
  vapor or sublimation pressure: 96.29 ± 0.45 kPa

## C=CC [propene]
253.05 K
  vapor or sublimation pressure: 307.2 ± 2.2 kPa
293.15 K
  vapor or sublimation pressure: 1015.9 ± 4.4 kPa

## CCCC(=O)O [butanoic acid]
373.1 K
  vapor or sublimation pressure: 9.38 ± 0.13 kPa
413.15 K
  vapor or sublimation pressure: 45.85 ± 0.23 kPa

## CC(C=O)c1ccccc1 (stereo unspecified) [2-phenylpropanal]
373.1 K
  vapor or sublimation pressure: 3.056 ± 0.084 kPa
423.15 K
  vapor or sublimation pressure: 20.97 ± 0.14 kPa

## COC [dimethyl ether]
253.05 K
  vapor or sublimation pressure: 125 ± 1.1 kPa
293.15 K
  vapor or sublimation pressure: 508.1 ± 2.2 kPa

## COCC(C)O (stereo unspecified) [1-methoxy-2-propanol]
313.15 K
  vapor or sublimation pressure: 3.614 ± 0.093 kPa
353.15 K
  vapor or sublimation pressure: 24.18 ± 0.15 kPa

## CC[N+](=O)[O-] [nitroethane]
313.15 K
  vapor or sublimation pressure: 6.097 ± 0.11 kPa
353.15 K
  vapor or sublimation pressure: 33.11 ± 0.18 kPa

## Oc1ccccc1 [phenol]
373.1 K
  vapor or sublimation pressure: 5.529 ± 0.11 kPa
423.15 K
  vapor or sublimation pressure: 39.18 ± 0.2 kPa
